No end group written: not given here.
Legend:
[1] = Calcein dye leakage from liposome mimicking red blood cell membrane; settings: for dye leakage: PC/CH (1:1, w/w) liposome mimicking a red blood cell membrane in a mammal, FIG. 3
Description: (§1) To study an action mechanism for FP12-NH2, FP13-NH2, allD FP12-NH2, and allD FP13-NH2 peptides, the disruption ability of the peptides against liposomes mimicking a bacterial cell membrane and a red blood cell membrane was measured.
(§2) EYPG is an abbreviation for egg yolk L-α-phosphatidyl-DL-glycerol, and EYPC is an abbreviation for egg yolk 1,2-diacyl-sn-glycero-3-phosphocholine. CH is an abbreviation for cholesterol. After dissolving the phospholipids composed according to the content of each component in chloroform, the chloroform was removed using a rotary evaporator, and lyophilization was performed overnight. Afterward, the dried lipid film was dissolved in a Tris-buffer solution, and calcein […]. After repeated freezing and thawing, the calcein-encapsulated liposome was manufactured using an extruder. Subsequently, after an excitation wavelength of a spectrofluorimeter (Shimadzu RF 5301 PC spectrofluorimeter, Japan) was set to 490 nm, and an emission wavelength was set to 520 nm, the peptide was administered to the liposome to measure relative dye leakage, provided that a 100% dye leakage was expressed as fluorescence intensity when 0.01% Triton-Xioo was added.
The upper graphs of FIG. 3 show the % dye leakage for an EYPC/EYPG (7:3, w/w) liposome mimicking bacterial cells, encapsulating a fluorescent dye, calcein, by a peptide according to a peptide concentration. […] The lower graphs of FIG. […]

S. aureus = settings: after treatment with proteolytic enzyme
[2] = In vivo toxicity (survival rate for 72 hours); set-up: species or system ICR mice; settings: ratio of a drug dose exhibiting toxicity to a drug dose for exhibiting a desired response
Description: To confirm the therapeutic and pharmaceutical effects of an acetate salt substitution of allD FP13-NH2, a septic animal model induced by intraperitoneally administering each of the Escherichia coli (standard strain and ESBL) strains or a normal mouse was treated with the peptide allD FP13-NH2 (AcOH). The antibiotic effect, the toxicity, and the inhibitory activity of […] cytokine IL-6 of the salt substitution with those of the same peptide at the end of trifluoroacetic acid (TFA) were compared.
An experimental method is as follows: Six-week-old female ICR mice (SPF mice, Samtako) with an average body weight of 25 g were used as experimental animals. The experimental animals were provided with sterile feed and water and bred with less than 10 mice per cage, and a day/night cycle was 12 hours.
To evaluate in vivo toxicity, the mice were divided into groups (n=5 or 6 per group) per experiment, and intraperitoneally treated six times with allD FP13-NH2 (TFA) and allD FP13-NH2 (AcOH) mixed with […]'S DEX solution (vehicle) at 0, 1, 2, 3, 4, or 5 hours, followed by observing a survival rate at intervals of 12 hours for 72 hours.

[3] = LPS binding affinity (Kd) by Isothermal Titration Calorimeter (ITC); set-up: species or system E. coli K1; settings: stated in words relative to FP1 (wild type, WT)
Text: FP1 (ADK 44-54) is denoted by wild type (WT), and peptides in which a point mutation occurred at various sites in WT were manufactured (FP3, FP5, FP6, and FP9). To increase the interaction with LPS in a residue sequence of FP3, peptides were designed based on FP3- and LPS-binding models (FP12-NH2 and FP13-NH2), and peptides were designed by additionally introducing a non-natural amino acid and an amino acid isomer (allomeric D-type amino acid) (allD FP12-NH2, allD FP13-NH2, allD FP-13-9a, allD FP-13-9w, allD FP-13-9k, and allD FP13-NH2 (AcOH)). In addition, an N-terminus PEGylated peptide (PEG-alld FP13-NH2 (AcOH)) was additionally designed, synthesized, and provided by ANYGEN, Co. Ltd. The binding affinity between each of the provided peptides and lipopolysaccharide (LPS) was confirmed through measuring the binding affinity (Kd) using Isothermal Titration Calorimeter (ITC).
Specifically, a method of analyzing binding affinity (Kd) between a peptide and LPS is as follows.
Measurement was carried out using a Malvern MicroCal PEAQ-ITC cell instrument, and the following pretreatment was carried out to confirm interaction with LPS. The amount and morphology of a sample cell are 300 µL and coin-shaped, fixed-in-place, respectively; a syringe rotation rate was 1,200 rpm; and a temperature was 30 °C, 35 °C or 25 °C.
Before the experiment, LPS and the peptide were previously diluted with PBS, thereby preparing 2 mM LPS and 0.2 mM peptide. 300 µL of the peptide was added into cells in the ITC instrument, which had been washed, and 40 µL of LPS was put into a syringe. After measurement conditions for ITC (temperature, number of injections) were set, the syringe was inserted into the cell, and ITC measurement was started. When the measurement was completed, analysis is performed, and the Kd values of LPS and the peptide were calculated.

[4] = Calcein dye leakage from liposome mimicking gram-negative bacterial cell membrane; settings: PC/PG (7:3, w/w) liposome; even at a low concentration
Description: as §1
as §2, with “added. […]” for “added.”

red blood cells = assay: Red blood cell hemolytic activity; format: cell-based, human; settings: even at a low concentration; control peptide
Description: The following experiment was carried out to determine the toxicity of a peptide through measurement of the red blood cell hemolytic activity in a human.
The red blood cells in a human were diluted with PBS for washing, and centrifuged for 10 minutes, the washing process was repeated three times. The 8.0% red blood cell solution diluted with PBS was loaded into a 96-well microtiter plate by 100 µL and 100 µL of a peptide solution was mixed, the mixture was incubated at 37 °C for 1 hour, and then the 96-well microtiter plate was centrifuged for 5 minutes. A 100 µL of supernatant was taken and transferred to another 96-well microtiter plate, and then absorbance was measured at 405 nm. Here, a value obtained when treated with 0.1% Triton X-100 was calculated as 100% hemolysis, and the hemolytic activity of the peptide was calculated as % hemolysis by Equation 1 below. Cell disruption rate(%Hemolysis) = (A−C)/(B−C) × 100 [formula]
Here, A is the absorbance at 405 nm in a peptide solution, B is the absorbance at 405 nm in a 0.1% Triton X-100, and C is the absorbance at 405 nm in a PBS solution.

In the case of CC(C)C[C@H](NC(=O)[C@H](Cc1ccc(O)cc1)NC(=O)[C@H](CCCNC(=N)N)NC(=O)[C@H](CCCNC(=N)N)NC(=O)[C@H](CC(C)C)NC(=O)[C@H](CCCCN)NC(=O)[C@@H](NC(=O)[C@H](CCCNC(=N)N)NC(=O)[C@H](CC(C)C)NC(=O)[C@@H](N)CCCNC(=N)N)C(C)C)C(=O)N[C@@H](CCCNC(=N)N)C(N)=O [FP12-NH2], the dye leakage [1] is reported as “almost no dye leakage”.

In the case of CC(C)C[C@H](NC(=O)[C@H](Cc1ccc(O)cc1)NC(=O)[C@H](CCCNC(=N)N)NC(=O)[C@H](CCCNC(=N)N)NC(=O)[C@H](CC(C)C)NC(=O)[C@H](CCCCN)NC(=O)[C@@H](NC(=O)[C@H](CCCNC(=N)N)NC(=O)[C@H](CC(C)C)NC(=O)[C@@H](N)CCCCN)C(C)C)C(=O)N[C@@H](CCCNC(=N)N)C(N)=O [FP13-NH2], the dye leakage [1] is reported as “almost no dye leakage”.

With CC(C)C[C@@H](NC(=O)[C@H](N)CCCNC(=N)N)C(=O)N[C@H](CCCNC(=N)N)C(=O)N[C@@H](C(=O)N[C@H](CCCCN)C(=O)N[C@H](CC(C)C)C(=O)N[C@H](CCCNC(=N)N)C(=O)N[C@H](CCCNC(=N)N)C(=O)N[C@H](Cc1ccc(O)cc1)C(=O)N[C@H](CC(C)C)C(=O)N[C@H](CCCNC(=N)N)C(N)=O)C(C)C [allD FP12-NH2] the dye leakage [1] was “almost no dye leakage” and the “stability (proteolytic enzyme resistance)” value (S. aureus) was “very high stability”.

For CC(C)C[C@@H](NC(=O)[C@H](N)CCCCN)C(=O)N[C@H](CCCNC(=N)N)C(=O)N[C@@H](C(=O)N[C@H](CCCCN)C(=O)N[C@H](CC(C)C)C(=O)N[C@H](CCCNC(=N)N)C(=O)N[C@H](CCCNC(=N)N)C(=O)N[C@H](Cc1ccc(O)cc1)C(=O)N[C@H](CC(C)C)C(=O)N[C@H](CCCNC(=N)N)C(N)=O)C(C)C [allD FP13-NH2 (AcOH)], the “therapeutic index = LD50/ED50” value [2] was “greater than 80”.

For CC(C)C[C@@H](NC(=O)[C@H](N)CCCCN)C(=O)N[C@H](CCCNC(=N)N)C(=O)N[C@@H](C(=O)N[C@H](CCCCN)C(=O)N[C@H](CC(C)C)C(=O)N[C@H](CCCNC(=N)N)C(=O)N[C@H](CCCNC(=N)N)C(=O)N[C@H](Cc1ccc(O)cc1)C(=O)N[C@H](CC(C)C)C(=O)N[C@H](CCCNC(=N)N)C(N)=O)C(C)C [allD FP13-NH2], the dye leakage [1] was “almost no dye leakage” and the “stability (proteolytic enzyme resistance)” value (S. aureus) was “very high stability”.

For KLRVKLRRALR [allD FP-13-9a], the LPS binding affinity [3] was “strong LPS binding affinity, which is equal to or higher than that of FP1”.

With KLRVKLRRKLR [allD FP-13-9k] the LPS binding affinity [3] was “strong LPS binding affinity, which is equal to or higher than that of FP1”.

In the case of KLRVKLRRWLR [allD FP-13-9w], the LPS binding affinity [3] is reported as “strong LPS binding affinity, which is equal to or higher than that of FP1”.

With melittin the calcein leakage [4] was “responsible for calcein leakage”, the calcein leakage ([1]; PC/CH (10:1, w/w) liposome mimicking a human red blood cell, 0.25 µM) was about 100% and the hemolytic activity (red blood cells) was 100%.

Source: EP3932936A1, “POLYPEPTIDE HAVING ANTIBACTERIAL ACTIVITY, COMPOSITION FOR PREVENTING OR TREATING SEPSIS COMPRISING SAME, AND ANTIBACTERIAL COMPOSITION” (Dandi Bioscience Inc, priority 2019, dated 2022)
